Results taken from patent US4226610A, “Herbicidal compounds, preparation thereof and herbicides containing the same” (Meiji Selka Kaisha, Ltd., priority 1978, dated 1980).

Test system: water hyacinth
Test: Experiment 4 foliar application to water hyacinths with surfactants
Format: in vivo, Eichhornia crassipes Solms
Design: key to Killing index: killing index: 0 = no effect, 5 = death
Text: The detail of the assessment made in the following Experiments of the invention was as follows:
Four months after treatment, evaluation was made for inhibition of reproduction expressed in terms of symbols ranging from (-) to (+++) where (-) means no reproduction, namely complete suppression of reproduction, (±) remarkable suppression of reproduction; (+) considerable suppression of reproduction; (++) medium supprestion of reproduction; and (+++) no suppression of reproduction.
Water was placed in 20 cm.×30 cm. plastic vessels and a liquid fertilizer was added thereto.
Two water hyacinths were floated in each vessel. 0.1 or 0.2% of each of surfactants listed in Table 6 were added to 0.1 or 0.2% aqueous solutions of DL-AMPB choline. Each solution was sprayed by foliar application in an amount of 100 liter per 10 are. The killing index (0, no effect; 5, death) after 21 days and 3 months and the reproduction-inhibiting effect (-, no reproduction; +++, maximum reproduction) after 3 months were determined.

[1] = 0.1%, octylphenyl polyoxyethanol 0.2%, 3 months

`CP(=O)(O)CCC(N)C(=O)O` (racemic) [DL-AMPB choline] was tested, and the Reproduction-inhibiting effect (0.1%, no surfactant, 3 months) was “+++”, the Reproduction-inhibiting effect (0.1%, octylphenyl polyoxyethanol 0.1%, 3 months) was “+” and the Killing index [1] was 4.5. For the same compound, the Reproduction-inhibiting effect [1] was “±”, the Reproduction-inhibiting effect (0.1%, polyoxyethylene alkylaryl ether 0.1%, 3 months) was “++” and the Killing index (0.1%, polyoxyethylene alkylaryl ether 0.1%, 21 days) was 2.5. For the same compound, the Reproduction-inhibiting effect (0.1%, polyoxyethylene alkylaryl ether 0.2%, 3 months) was “±”, the Reproduction-inhibiting effect (0.1%, polyoxyethylene dodecyl ether 0.1%, 3 months) was “++” and the Killing index (0.1%, polyoxyethylene dodecyl ether 0.1%, 21 days) was 2.5. The Reproduction-inhibiting effect (0.1%, polyoxyethylene dodecyl ether 0.2%, 3 months) was “±”, the Reproduction-inhibiting effect (0.1%, polyoxyethylene sorbitan monooleate 0.1%, 3 months) was “++” and the Killing index (0.1%, polyoxyethylene sorbitan monooleate 0.1%, 21 days) was 2.5. For the same compound, the Reproduction-inhibiting effect (0.1%, polyoxyethylene sorbitan monooleate 0.2%, 3 months) was “±”, the Reproduction-inhibiting effect (0.1%, polyoxyethylene sorbitan monostearate 0.1%, 3 months) was “++” and the Killing index (0.1%, polyoxyethylene sorbitan monostearate 0.1%, 21 days) was 2.5. For the same compound, the Reproduction-inhibiting effect (0.1%, polyoxyethylene sorbitan monostearate 0.2%, 3 months) was “±”, the Killing index (0.2%, no surfactant, 3 months) was 4.5 and the Reproduction-inhibiting effect (0.2%, no surfactant, 3 months) was “±”. The Reproduction-inhibiting effect (0.2%, octylphenyl polyoxyethanol 0.1%, 3 months) was “-”, the Reproduction-inhibiting effect (0.2%, octylphenyl polyoxyethanol 0.2%, 3 months) was “-” and the Reproduction-inhibiting effect (0.2%, polyoxyethylene alkylaryl ether 0.1%, 3 months) was “-”. The Killing index (0.2%, polyoxyethylene alkylaryl ether 0.1%, 21 days) was 4.5, the Reproduction-inhibiting effect (0.2%, polyoxyethylene alkylaryl ether 0.2%, 3 months) was “-” and the Reproduction-inhibiting effect (0.2%, polyoxyethylene dodecyl ether 0.1%, 3 months) was “-”. For the same compound, the Killing index (0.2%, polyoxyethylene dodecyl ether 0.1%, 21 days) was 4.5, the Reproduction-inhibiting effect (0.2%, polyoxyethylene dodecyl ether 0.2%, 3 months) was “-” and the Reproduction-inhibiting effect (0.2%, polyoxyethylene sorbitan monooleate 0.1%, 3 months) was “-”. The Killing index (0.2%, polyoxyethylene sorbitan monooleate 0.1%, 21 days) was 4.5, the Reproduction-inhibiting effect (0.2%, polyoxyethylene sorbitan monooleate 0.2%, 3 months) was “-” and the Reproduction-inhibiting effect (0.2%, polyoxyethylene sorbitan monostearate 0.1%, 3 months) was “-”. The Killing index (0.2%, polyoxyethylene sorbitan monostearate 0.1%, 21 days) was 4.5 and the Reproduction-inhibiting effect (0.2%, polyoxyethylene sorbitan monostearate 0.2%, 3 months) was “-”.
